# Assays:
# [1] = target: human JAK1 (a.a. 837-1142) (Homo sapiens, UniProt P23458); test: In vitro JAK kinase assay (HTRF), JAK1; type: biochemical; conditions: 1 mM ATP
# Description: (§1) The catalytic activity of JAK1, JAK2 or JAK3 was assayed by measuring the phosphorylation of a biotinylated peptide. The phosphorylated peptide was detected by homogenous time resolved fluorescence (HTRF). […] Reactions are carried out at room temperature for 1 hour and then stopped with 20 μL 45 mM EDTA, 300 nM SA-APC, 6 nM Eu-Py20 in assay buffer (Perkin Elmer, Boston, Mass.). Binding to the Europium labeled antibody takes place for 40 minutes and HTRF signal was measured on a Fusion plate reader (Perkin Elmer, Boston, Mass.).
# [2] = target: human JAK2 (a.a. 828-1132) (Homo sapiens (Human), UniProt O60674); test: In vitro JAK kinase assay (HTRF), JAK2, for JAK2/JAK1 ratio; type: biochemical; conditions: IC50 ratio, 1 mM ATP
# Description: as §1
# [3] = test system: anti-CD3 antibody-induced cytokine release syndrome (CRS) in BALB/c mice; test: Anti-CD3 antibody-induced cytokine release syndrome in BALB/c mice; type: in vivo; conditions: 60 and 120 mg/kg PO 1 h before anti-CD3 (10 μg IV); plasma 1.5 h after anti-CD3; FIG. 1
# Description: JAK1 pathway inhibitors can be tested for efficacy against CRS according to an in vivo assay described in Ferran, C. et al. Clin. Exp. Immunol. 1991, 86, 537-543. Specifically, this study can test the ability of a compound to reduce or ameliorate anti-CD3 antibody-induced cytokine release syndrome (CRS) in BALB/c mice. The antibody, clone 145-2C11, is an immunoglobin G (IgG) hamster MoAb that is specific for the ε chain of the CD3 murine molecule (Léo, O. et al., Proc. Natl. Acad. Sci. USA, 1987, […], 1374). Treatment with 145-2C11 induces high affinity IL-2 receptors at the surface of spleen T-cells and results in a release of some cytokines such as tumor necrosis factor (TNF-α), IL-2, IL-3, IL-6, and interferon-gamma (IFN-γ) (Ferran, et al. Eur. J. Immunol. 1990, 20, 509-515 and Algre, M. et al., Eur. J. Immunol., 1990, 707). […]
# The main objective of this study was to test the ability of a JAK1 pathway inhibitor (e.g., Compound 1) to reduce or ameliorate anti-CD3 antibody-induced cytokine release syndrome (CRS) in BALB/c mice. […] Animals were weighed prior to test article dosing, and monitored for the duration of the experiment. […]
# After the administration of the anti-CD3 antibody, animals were closely monitored for signs of distress due to the resulting systemic inflammatory response. […]
# [4] = test system: Con A-induced cytokine release syndrome (CRS) in BALB/c mice; test: Concanavalin A induced cytokine release syndrome in BALB/c mice; type: in vivo; conditions: plasma 2 h after Con A
# Description: Concanavalin A (Con A) is a selective T lymphocyte mitogen resulting in broad inflammatory cytokine release and proliferation of CD4 and CD8 T-cells. Injection of Con-A has been shown in the literature to induce cytokine release syndrome and serves as a model with which to test the efficacy of cytokine release syndrome therapies (Gantner, F. at al. Hepatology, 1995, 21, 190-198). The mitogen response is dependent on expression of the T-cell receptor.
# In particular, this study tests the ability of a selective JAK1 inhibitor (e.g., Compound 1, Table 1) to reduce or ameliorate Con A-induced cytokine release syndrome (CRS) in BALB/c mice. A total of forty (40) BALB/c mice were used for this one day study. Animals were weighed prior to test article dosing, and monitored for the duration of the experiment. On day 0, Sixty (60) minutes prior to Con A administration, vehicle (0.5% methylcellulose) or Compound 1 (60 and 120 mg/kg) was given in a single dose via oral gavage (PO) to animals in groups 2-4 as detailed in Table 2A. Group 1 served as naïve controls and were not treated. Following the […] pre-treatment with vehicle or Compound 1, animals in Groups 2-4 were administered 20 mg/kg of Con A via intravenous injection (IV) in order to induce CRS. All animals were euthanized via CO2 inhalation two hours after Con A administration. Whole blood was collected via cardiac puncture into K2EDTA tubes and stored on ice until plasma processing occurs. Plasma was collected and stored at −80° C. until cytokine multiplex was performed.
# Animals were weighed and Con-A dose (20 mg/kg) calculated.
# Vehicle and Compound 1 were prepared at corresponding doses.
# On day 0, animals were dosed with vehicle or Compound 1, as in Table 2A. Group 1 served as the naïve controls and were not treated. Group 2 received a single dose of vehicle (0.5% methylcellulose) via PO at 0.1 mL/20 g. Group 3 received a single dose of 60 mg/kg Compound 1 via PO at 0.1 mL/20 g. Group 4 received a single dose of 120 mg/kg Compound 1 via PO at 0.1 mL/20 g.
# Sixty (60) minutes after test article administration, Con-A was administered via IV injection to Groups 2-4. Each animal in Groups 2-4 received 20 mg/kg of Con-A in 0.2 mL.
# After the administration of Con-A, animals were closely monitored for signs of distress due to the resulting systemic inflammatory response.
# Two hours after Con-A administration all animals were euthanized by CO2 inhalation.
# Upon sacrifice, whole blood was collected from each animal via cardiac puncture into K2EDTA tubes. The blood was centrifuged and the plasma collected in cryovials. The plasma was frozen and stored at −80° C. for the downstream cytokine multiplex assay.
# Plasma samples are thawed on ice and used for a cytokine multiplex according to the manufacturer's protocol (ThermoFisher).
# An unpaired one-way analysis of variance (ANOVA) incorporating Sidak's multiple test comparison was performed using GraphPad Prism (version 4.00; GraphPad Software, San Diego Calif., USA). A value of p<0.05 was considered significant.
# human JAK2 (a.a. 828-1132), sequence (O60674 828-1132): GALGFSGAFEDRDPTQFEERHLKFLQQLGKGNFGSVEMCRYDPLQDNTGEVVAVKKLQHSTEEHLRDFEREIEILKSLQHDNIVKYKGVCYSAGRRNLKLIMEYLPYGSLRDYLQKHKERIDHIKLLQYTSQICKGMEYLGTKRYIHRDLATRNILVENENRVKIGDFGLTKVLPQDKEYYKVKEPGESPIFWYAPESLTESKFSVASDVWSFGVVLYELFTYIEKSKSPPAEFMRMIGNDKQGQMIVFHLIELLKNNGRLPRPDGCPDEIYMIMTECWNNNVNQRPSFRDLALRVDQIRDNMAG
smiles,measurement,setting,value
"N#CCC1(n2cc(-c3ncnc4[nH]ccc34)cn2)CN(C2CCN(C(=O)c3ccnc(C(F)(F)F)c3F)CC2)C1 [Compound 1, {1-{1-[3-Fluoro-2-(trifluoromethyl)isonicotinoyl]piperidin-4-yl}-3-[4-(7H-pyrrolo[2,3-d]pyrimidin-4-yl)-1H-pyrazol-1-yl]azetidin-3-yl}acetonitrile]",IC50,[1],< 10 nM
same,JAK2/JAK1,[2],>10
same,IL-6 concentrations within the blood compartment,[3],dose-dependently inhibited
same,IL-6 concentrations within the blood compartment,"[4]; 60 and 120 mg/kg PO 60 min before Con A (20 mg/kg IV), FIG. 2A",dose-dependently inhibited
same,IFNγ (T-cell derived cytokine),"[4]; 60 and 120 mg/kg PO before Con A, FIG. 2B",significantly inhibited
same,GM-CSF (T-cell derived cytokine),"[4]; 60 and 120 mg/kg PO before Con A, FIG. 2C",significantly inhibited
same,IL-12 (monocyte and/or macrophage derived cytokine),"[4]; 60 and 120 mg/kg PO before Con A, FIG. 3A",Statistically significant dose-dependent IL-12 reduction
same,IL-1β (monocyte and/or macrophage derived cytokine),"[4]; 60 and 120 mg/kg PO before Con A, FIG. 3B",trends for treatment effect
same,IL-18 (monocyte and/or macrophage derived cytokine),"[4]; 60 and 120 mg/kg PO before Con A, FIG. 3C",trends for treatment effect
same,IL-5,"[4]; 60 and 120 mg/kg PO before Con A, FIG. 4",unaffected
